Consider eight molecules from ChEMBL document CHEMBL3085748, “Acetylcholinesterase inhibitors as Alzheimer therapy: from nerve toxins to neuroprotection” (Eur J Med Chem, 2013).

The target in assay [1] is T1, Acetylcholinesterase (Electrophorus electricus, UniProt O42275). Description: Inhibition of electric eel acetylcholinesterase using acetylcholine chloride as substrate measured every 1 min by chemiluminescent assay.
The target of assay [2] is T2, Acetylcholinesterase (Bos taurus, UniProt P23795).
T2 sequence (P23795 whole entry): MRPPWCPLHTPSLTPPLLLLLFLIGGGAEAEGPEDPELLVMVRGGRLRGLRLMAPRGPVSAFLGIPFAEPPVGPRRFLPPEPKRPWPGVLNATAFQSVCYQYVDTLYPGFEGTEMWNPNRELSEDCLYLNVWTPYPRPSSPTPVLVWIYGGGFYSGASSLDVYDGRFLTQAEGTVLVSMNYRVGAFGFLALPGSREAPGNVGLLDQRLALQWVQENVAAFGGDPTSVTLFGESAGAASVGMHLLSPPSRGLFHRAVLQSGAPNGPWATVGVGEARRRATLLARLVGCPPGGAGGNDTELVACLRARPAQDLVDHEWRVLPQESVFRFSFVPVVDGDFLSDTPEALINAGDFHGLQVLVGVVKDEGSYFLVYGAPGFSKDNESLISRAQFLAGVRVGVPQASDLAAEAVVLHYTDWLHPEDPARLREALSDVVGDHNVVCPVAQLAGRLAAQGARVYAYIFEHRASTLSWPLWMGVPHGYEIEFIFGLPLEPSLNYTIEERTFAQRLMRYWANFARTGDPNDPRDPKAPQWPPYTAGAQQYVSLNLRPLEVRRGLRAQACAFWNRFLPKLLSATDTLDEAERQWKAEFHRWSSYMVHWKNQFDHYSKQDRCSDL
Description: Inhibition of bovine erythrocyte acetylcholinesterase using acetylthiocholine iodide as substrate after 15 mins by Ellman's method.

Assay [3] addresses T3, Acetylcholinesterase (Homo sapiens, UniProt P22303). Description: Inhibition of acetylcholinesterase (unknown origin) by Ellman's method. Background: DTNB colorimetry detects thiols as they appear.
Assay [4] deals with T4, Acetylcholinesterase (Rattus norvegicus, UniProt P37136).
T4 sequence (P37136 whole entry): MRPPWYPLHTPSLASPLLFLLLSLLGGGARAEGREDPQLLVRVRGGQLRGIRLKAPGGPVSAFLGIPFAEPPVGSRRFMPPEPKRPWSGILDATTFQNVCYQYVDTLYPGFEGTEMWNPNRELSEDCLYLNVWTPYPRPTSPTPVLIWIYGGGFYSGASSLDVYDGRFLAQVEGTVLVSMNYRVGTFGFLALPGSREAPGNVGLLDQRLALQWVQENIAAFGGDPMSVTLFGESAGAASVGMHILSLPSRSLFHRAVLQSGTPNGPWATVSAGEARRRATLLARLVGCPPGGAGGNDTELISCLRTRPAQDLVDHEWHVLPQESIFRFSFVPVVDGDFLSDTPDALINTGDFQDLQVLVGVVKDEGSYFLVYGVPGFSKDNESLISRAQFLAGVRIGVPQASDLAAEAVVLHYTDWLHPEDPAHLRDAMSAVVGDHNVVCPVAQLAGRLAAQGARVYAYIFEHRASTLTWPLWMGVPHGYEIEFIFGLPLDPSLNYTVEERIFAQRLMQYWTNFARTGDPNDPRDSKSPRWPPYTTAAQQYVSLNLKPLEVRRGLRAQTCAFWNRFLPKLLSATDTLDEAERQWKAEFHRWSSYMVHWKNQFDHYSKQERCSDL
Description: Inhibition of rat brain AChE.

The target in assay [5] is T1, Acetylcholinesterase. Description: Inhibition of electric eel acetylcholinesterase using acetylthiocholine chloride as substrate preincubated for 15 mins followed by substrate addition measured every 1 min by spectrophotometric analysis.
In another assay the target is Cholinesterase (Equus caballus, UniProt P81908). Description: Inhibition of equine serum BuChE after 15 mins by spectrophotometric analysis.
Sequence of Cholinesterase (P81908 whole entry): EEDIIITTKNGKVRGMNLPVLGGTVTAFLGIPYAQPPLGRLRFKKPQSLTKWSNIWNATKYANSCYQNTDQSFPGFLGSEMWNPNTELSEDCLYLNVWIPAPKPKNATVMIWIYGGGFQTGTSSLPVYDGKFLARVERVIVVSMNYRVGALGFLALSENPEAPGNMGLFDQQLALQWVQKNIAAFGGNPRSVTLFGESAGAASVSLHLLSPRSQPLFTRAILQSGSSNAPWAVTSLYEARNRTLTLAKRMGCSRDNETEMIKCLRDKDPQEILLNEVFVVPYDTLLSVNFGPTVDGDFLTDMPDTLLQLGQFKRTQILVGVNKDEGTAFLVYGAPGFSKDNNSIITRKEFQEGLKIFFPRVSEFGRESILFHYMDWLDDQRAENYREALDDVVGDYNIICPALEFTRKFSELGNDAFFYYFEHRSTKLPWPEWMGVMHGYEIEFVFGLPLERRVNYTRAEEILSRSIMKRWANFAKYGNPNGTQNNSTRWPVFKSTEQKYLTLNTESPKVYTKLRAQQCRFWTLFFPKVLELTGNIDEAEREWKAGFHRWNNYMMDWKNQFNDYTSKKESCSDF
The target in assay [6] is T3, Acetylcholinesterase. Description: Inhibition of acetylcholinesterase (unknown origin).

T3 sequence (P22303 whole entry): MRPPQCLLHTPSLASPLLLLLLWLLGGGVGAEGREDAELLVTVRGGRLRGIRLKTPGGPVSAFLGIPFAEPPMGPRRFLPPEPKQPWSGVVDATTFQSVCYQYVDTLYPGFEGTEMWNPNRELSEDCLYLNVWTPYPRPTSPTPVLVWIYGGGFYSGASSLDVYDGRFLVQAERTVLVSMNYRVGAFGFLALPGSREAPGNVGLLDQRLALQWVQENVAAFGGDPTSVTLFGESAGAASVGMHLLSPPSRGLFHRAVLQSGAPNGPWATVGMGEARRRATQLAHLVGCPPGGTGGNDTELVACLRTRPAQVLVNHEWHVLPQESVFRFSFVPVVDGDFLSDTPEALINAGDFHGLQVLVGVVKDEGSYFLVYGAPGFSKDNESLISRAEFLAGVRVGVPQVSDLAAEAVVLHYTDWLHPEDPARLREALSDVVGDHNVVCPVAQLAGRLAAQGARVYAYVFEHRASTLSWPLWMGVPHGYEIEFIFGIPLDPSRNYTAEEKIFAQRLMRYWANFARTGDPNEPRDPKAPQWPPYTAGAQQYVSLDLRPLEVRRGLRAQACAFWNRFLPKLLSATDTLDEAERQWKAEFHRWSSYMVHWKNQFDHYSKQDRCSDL
T1 sequence (O42275 whole entry): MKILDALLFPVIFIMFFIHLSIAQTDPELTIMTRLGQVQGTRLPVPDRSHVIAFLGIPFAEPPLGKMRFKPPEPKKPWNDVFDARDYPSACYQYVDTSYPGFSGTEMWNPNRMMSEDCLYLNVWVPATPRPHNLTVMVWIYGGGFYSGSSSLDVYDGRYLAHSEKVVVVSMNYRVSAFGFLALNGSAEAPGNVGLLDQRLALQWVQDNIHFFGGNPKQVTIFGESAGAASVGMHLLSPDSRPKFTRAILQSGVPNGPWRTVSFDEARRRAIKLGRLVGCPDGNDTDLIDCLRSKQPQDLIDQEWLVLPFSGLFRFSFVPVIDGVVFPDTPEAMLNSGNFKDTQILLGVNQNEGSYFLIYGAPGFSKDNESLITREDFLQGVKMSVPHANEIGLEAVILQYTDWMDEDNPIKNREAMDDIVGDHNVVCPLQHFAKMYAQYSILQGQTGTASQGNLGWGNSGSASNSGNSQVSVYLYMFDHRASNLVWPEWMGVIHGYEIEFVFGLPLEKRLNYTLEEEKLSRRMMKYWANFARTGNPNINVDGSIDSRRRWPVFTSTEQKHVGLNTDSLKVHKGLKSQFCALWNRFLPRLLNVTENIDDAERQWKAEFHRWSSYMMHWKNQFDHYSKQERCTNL

Broadly, the IC50 is the concentration that inhibits the measured activity by half. `O=C1CCN(Cc2ccccc2)C/C1=C\c1c[nH]c2ccccc12` registered an IC50 on Acetylcholinesterase [1] of 8 µM.
With `Cc1nn(-c2ccccc2)c2nc3nc4c(c(N)c3cc12)CCCC4`, the midpoint of inhibition at Acetylcholinesterase [2], the IC50, lay at 6.4 µM.
Molecule `CCn1c(=O)n(C)s/c1=N\CCC1CCN(Cc2ccccc2)CC1` displayed a half-inhibitory concentration (IC50) on Acetylcholinesterase [3] of 0.14 µM.
On Acetylcholinesterase [4], `CC(=O)CCCCCCCCCCCC[C@H]1CC[C@@H](OC(C)=O)[C@@H](C)N1` showed a half-inhibitory concentration (IC50) of 7.32 µM.
`CC(=O)CCCCCCCCCCCC[C@H]1CC[C@@H](OC(=O)OC(C)(C)C)[C@@H](C)N1` showed a half-maximal inhibitory concentration (IC50) against Acetylcholinesterase [4] of 15.1 µM. This IC50 is about 2.1-fold higher than that of the molecule before.
In the case of `COc1cc2c3c(c1OC)/C1=C/C[C@H](O)C[C@@H](O)[C@H](O1)[C@@H]3N(C)CC2`, the IC50 against Acetylcholinesterase [5] was determined as 0.72 µM; against Cholinesterase, 13.4 µM.
`CCOC(=O)C1=C(C)Oc2nc3c(c(N)c2C1c1ccc(OC)cc1)CCCC3` (centres undefined): inhibition on Acetylcholinesterase [6] was half-maximal at 0.868 µM (IC50). This lies in the sub-micromolar range.
For the molecule `CCOC(=O)C1=C(C)Oc2nc3c(c(N)c2C1c1ccc(C)cc1)CCCC3` (centres undefined), at Acetylcholinesterase [6], the midpoint of inhibition, the IC50, lay at 0.182 µM.
